# US10765114B2, “4-amino-6-(pyridyl and 2-substitutedphenyl)-picolinates and 6-amino-2-(pyridyl and 2-substitutedphenyl)-pyrimidine-4-carboxylates and their use as herbicides” (Dow AgroSciences LLC, priority 2013, dated 2020)
# Experiments:
# Test in all cases: Post-Emergent Test III (Wheat and Barley)
# [1] = test system: SETVI (green foxtail); assay type: in vivo, Setaria viridis; details: for pest or weed control at 35 g/ha / pest or weed control at 70 g/ha / pest or weed control at 140 g/ha: Setaria viridis, post-emergence, 504 h, postemergence, read-out: Visual Growth Reduction (%) 21 Days After Application, SETVI; for pest or weed control at 35 g/ha: 35 g ai/ha; for pest or weed control at 70 g/ha: 70 g ai/ha; for pest or weed control at 140 g/ha: 140 g ai/ha; for GR50, SETVI: effective dose for growth reduction of 50 percent; for GR50, SETVI / GR80, SETVI: probit analysis; for GR80, SETVI: effective dose for growth reduction of 80 percent
# Method: (§1) Seeds of the desired test plant species were planted in Sun Gro MetroMix® 306 planting mixture, which typically has a pH of 6.0 to 6.8 and an organic matter content of about 30 percent, in plastic pots with a surface area of 103.2 square centimeters (cm^2). When required to ensure good germination and healthy plants, a fungicide treatment and/or other chemical or physical treatment was applied. The plants were grown for 7-36 days in a greenhouse with an approximate 14 h photoperiod which was maintained at about 18° C. during the day and 17° C. during the night. Nutrients and water were added on a regular basis and supplemental lighting was provided with overhead metal halide 1000-Watt lamps as necessary. The plants were employed for testing when they reached the second or third true leaf stage.
# (§2) A weighed amount, determined by the highest rate to be tested, of each test compound was placed in a 25 mL glass vial and was dissolved in 4 mL of a 97:3 v/v mixture of acetone and DMSO to obtain concentrated stock solutions. […] The concentrated stock solutions obtained were diluted with 20 mL of an aqueous mixture containing acetone, water, isopropyl alcohol, DMSO, Agri-Dex crop oil concentrate, and X-77 surfactant in a 48:39:10:1.5:1.5:0.02 v/v ratio to obtain spray solutions containing the highest application rates. Additional application rates were obtained by serial dilution of 12 mL of the high rate solution into a solution containing 2 mL of 97:3 v/v mixture of acetone and DMSO and 10 mL of an aqueous mixture containing acetone, water, isopropyl alcohol, DMSO, Agri-Dex crop oil concentrate, and X-77 surfactant in a 48:39:10:1.5:1.5:0.02 v/v ratio to obtain ½×, ¼×, ⅛× and 1/16× rates of the high rate. Compound requirements are based upon a 12 mL application volume at a rate of 187 liters per hectare (L/ha). Formulated compounds were applied to the plant material with an overhead Mandel track sprayer equipped with 8002E nozzles calibrated to deliver 187 L/ha over an application area of 0.503 square meters at a spray height of 18 inches (43 cm) above the average plant canopy height. Control plants were sprayed in the same manner with the solvent blank.
# (§3) The treated plants and control plants were placed in a greenhouse as described above and watered by subirrigation to prevent wash-off of the test compounds. After 21 dAYS, the condition of the test plants as compared with that of the untreated plants was determined visually and scored on a scale of 0 to 100 percent where 0 corresponds to no injury and 100 corresponds to complete kill and presented as indicated in Table A.
# (§4) By applying the well-accepted probit analysis as described by J. Berkson in Journal of the American Statistical Society, 48, 565 (1953) and by D. Finney in “Probit Analysis” Cambridge University Press (1952), herbicidal injury of a specific compound at various rates can be used to calculate GR10, GR20, GR50, GR80 and GR90 values, which are defined as growth reduction factors that correspond to the effective dose of herbicide required to provide plant growth reduction (GR) of 10 percent, 20 percent, 50 percent, 80 percent and 90 percent, respectively. Probit analysis was applied to data collected from multiple dose rates of individual compounds utilizing the procedures explained in the following examples. The analysis of those dose rates is captured in the following tables.
# [2] = test system: POLCO (wild buckwheat); assay type: in vivo, Polygonum convolvulus; details: for Visual Growth Reduction (%) 21 Days After Application, POLCO: POLCO wild buckwheat (Polygonum convolvulus), post-emergent; for GR50, POLCO: growth reduction of 50%; for GR50, POLCO / GR80, POLCO / GR90, POLCO: probit analysis, 21 days; for GR80, POLCO: growth reduction of 80%; for GR90, POLCO: growth reduction of 90%
# Method: as §1, §2, §3, §4
# [3] = test system: PAPRH (common poppy); assay type: in vivo, Papaver rhoeas; details: for Visual Growth Reduction (%) 21 Days After Application, PAPRH: PAPRH common poppy (Papaver rhoeas), post-emergent; for GR50, PAPRH: growth reduction of 50%; for GR50, PAPRH / GR80, PAPRH / GR90, PAPRH: probit analysis, 21 days; for GR80, PAPRH: growth reduction of 80%; for GR90, PAPRH: growth reduction of 90%
# Method: as §1, §2, §3, §4
SMILES,pest or weed control at 35 g/ha [1],pest or weed control at 70 g/ha [1],pest or weed control at 140 g/ha [1],"GR50, SETVI [1]","GR80, SETVI [1]","Visual Growth Reduction (%) 21 Days After Application, POLCO ([2]; 17.5 g ai/ha)","Visual Growth Reduction (%) 21 Days After Application, POLCO ([2]; 35 g ai/ha)","Visual Growth Reduction (%) 21 Days After Application, POLCO ([2]; 70 g ai/ha)","GR50, POLCO [2]","GR80, POLCO [2]","GR90, POLCO [2]","Visual Growth Reduction (%) 21 Days After Application, PAPRH ([3]; 17.5 g ai/ha)","Visual Growth Reduction (%) 21 Days After Application, PAPRH ([3]; 35 g ai/ha)","Visual Growth Reduction (%) 21 Days After Application, PAPRH ([3]; 70 g ai/ha)","GR50, PAPRH [3]","GR80, PAPRH [3]","GR90, PAPRH [3]"
COC(=O)c1nc(-c2ccc(Cl)c(F)c2OC)cc(N)c1Cl [Compound 20],0 to 29%,60 to 74%,60 to 74%,80 g ai/ha,>140 g ai/ha,,,,,,,,,,,,
"COC(=O)c1nc(-c2ccc(Br)nc2)c(F)c(N)c1Cl [Compound 22, methyl 4-amino-6′-bromo-5-chloro-3-fluoro-[2,3′-bipyridine]-6-carboxylate]",,,,,,E (45-59),E (45-59),D (60-74),26 g ai/ha,>140 g ai/ha,>140 g ai/ha,A (95-100),A (95-100),A (95-100),1 g ai/ha,1 g ai/ha,1 g ai/ha
Cc1c(-c2cc(N)c(Cl)c(C(=O)O)n2)ccc(Cl)c1Cl [Compound 28],,,,,,A (95-100),A (95-100),A (95-100),1 g ai/ha,1 g ai/ha,4 g ai/ha,G (0-29),G (0-29),G (0-29),>140 g ai/ha,>140 g ai/ha,>140 g ai/ha
Nc1c(Cl)c(C(=O)O)nc(-c2ccc(C(F)(F)F)nc2)c1Cl [Compound 33],45 to 59%,60 to 74%,60 to 74%,48 g ai/ha,>140 g ai/ha,,,,,,,,,,,,
"Nc1c(F)c(-c2ccc(C3CC3)nc2)nc(C(=O)O)c1Cl [Compound 36, 4-amino-5-chloro-6′-cyclopropyl-3-fluoro-[2,3′-bipyridine]-6-carboxylic acid]",30 to 44%,45 to 59%,,59 g ai/ha,>140 g ai/ha,,,,,,,,,,,,
"COC(=O)c1nc(-c2ccc(Cl)c(F)c2OC)c(F)c(N)c1Cl [Compound 39, methyl 4-amino-3-chloro-6-(4-chloro-3-fluoro-2-methoxyphenyl)-5-fluoropicolinate]",0 to 29%,0 to 29%,45 to 59%,>140 g ai/ha,>140 g ai/ha,,,,,,,,,,,,
COC(=O)c1nc(-c2ccc(C3CC3)nc2)c(F)c(N)c1Cl [Compound 49],30 to 44%,95 to 100%,95 to 100%,28 g ai/ha,57 g ai/ha,,,,,,,,,,,,
"Cc1c(-c2ccc(C(F)(F)F)nc2)nc(C(=O)O)c(Cl)c1N [Compound 51, 4-amino-5-chloro-3-methyl-6′-(trifluoromethyl)-[2,3′-bipyridine]-6-carboxylic acid]",75 to 84%,85 to 94%,,26 g ai/ha,47 g ai/ha,,,,,,,,,,,,
"COC(=O)c1nc(-c2ccc(C(F)(F)F)nc2)c(F)c(N)c1Cl [Compound 59, methyl 4-amino-5-chloro-3-fluoro-6′-(trifluoromethyl)-[2,3′-bipyridine]-6-carboxylate]",45 to 59%,85 to 94%,,34 g ai/ha,61 g ai/ha,,,,,,,,,,,,
Nc1c(F)c(-c2ccc(OC(F)F)nc2)nc(C(=O)O)c1Cl [Compound 66],30 to 44%,60 to 74%,75 to 84%,49 g ai/ha,112 g ai/ha,,,,,,,,,,,,
COC(=O)c1nc(-c2ccc(OC(F)F)nc2)c(F)c(N)c1Cl [Compound 71],30 to 44%,45 to 59%,75 to 84%,72 g ai/ha,>140 g ai/ha,,,,,,,,,,,,
COC(=O)c1nc(-c2ccc(C(F)(F)F)nc2)c(Cl)c(N)c1Cl [Compound 83],0 to 29%,60 to 74%,,63 g ai/ha,139 g ai/ha,,,,,,,,,,,,
Nc1cc(-c2ccc(Cl)c(Cl)c2Cl)nc(C(=O)O)c1Cl [Compound 93],,,,,,B (85-94),B (85-94),A (95-100),2 g ai/ha,7 g ai/ha,13 g ai/ha,C (75-84),C (75-84),B (85-94),1 g ai/ha,27 g ai/ha,>140 g ai/ha
